Measured values reported in ChEMBL document CHEMBL4340512, “Discovery of novel triazolo[4,3-b]pyridazin-3-yl-quinoline derivatives as PIM inhibitors” (Eur J Med Chem, 2019).

Columns and labels:
SK-MEL19 [1] = assay: Antiproliferative activity against human SK-MEL-19 assessed as combination index at 5 uM incubated for 72 hrs in presence of GI50 dose of Taxotere by CellTiter-Glo luminescence assay; assay type: functional
T47D [2] = assay: Antiproliferative activity against human T47D assessed as combination index at 20 uM incubated for 72 hrs in presence of GI50 dose of Lapatinib by CellTiter-Glo luminescence assay; assay type: functional
A549 = assay: Antiproliferative activity against human A549 cells incubated for 72 hrs by CellTiter-Glo luminescence assay; assay type: functional; conditions: A549, 72 h
SK-MEL19 [3] = assay: Antiproliferative activity against human SK-MEL-19 assessed as combination index at 5 uM incubated for 72 hrs in presence of GI50 dose of Lapatinib by CellTiter-Glo luminescence assay; assay type: functional
T47D [4] = assay: Antiproliferative activity against human T47D cells incubated for 72 hrs by CellTiter-Glo luminescence assay; assay type: functional
[5] = Antiproliferative activity against human TC71 cells incubated for 72 hrs by CellTiter-Glo luminescence assay; assay type: functional; conditions: TC-71, 72 h
[6] = biological target: Voltage-gated inwardly rectifying potassium channel KCNH2 (Homo sapiens, UniProt Q12809)
MV4-11 [7] = assay: Antiproliferative activity against human MV4-11 assessed as combination index at 10 uM incubated for 72 hrs in presence of GI50 dose of GDC-0941 by CellTiter-Glo luminescence assay; assay type: functional
PC-3 = assay: Antiproliferative activity against human PC3 assessed as combination index at 20 uM incubated for 72 hrs in presence of GI50 dose of Bortezomib by CellTiter-Glo luminescence assay; assay type: functional
SW480 = assay: Antiproliferative activity against human SW480 cells incubated for 72 hrs by CellTiter-Glo luminescence assay; assay type: functional; conditions: SW480, 72 h
MDA-MB-231 [8] = assay: Antiproliferative activity against human MDA-MB-231 cells incubated for 72 hrs by CellTiter-Glo luminescence assay; assay type: functional; conditions: MDA-MB-231, 72 h
MV4-11 [9] = assay: Antiproliferative activity against human MV4-11 assessed as combination index at 10 uM incubated for 72 hrs in presence of GI50 dose of Taxotere by CellTiter-Glo luminescence assay; assay type: functional
SK-BR-3 = assay: Antiproliferative activity against human SKBR3 cells incubated for 72 hrs by CellTiter-Glo luminescence assay; assay type: functional; conditions: SK-BR-3, 72 h
U-87 MG [10] = assay: Antiproliferative activity against human U87MG cells incubated for 72 hrs by CellTiter-Glo luminescence assay; assay type: functional, U-87MG ATCC
MDA-MB-231 [11] = assay: Antiproliferative activity against human MDA-MB-231 assessed as combination index at 20 uM incubated for 72 hrs in presence of GI50 dose of Lapatinib by CellTiter-Glo luminescence assay; assay type: functional
MIA PaCa-2 [12] = assay: Antiproliferative activity against human MIAPaCa2 cells incubated for 72 hrs by CellTiter-Glo luminescence assay; assay type: functional; conditions: MIA PaCa-2, 72 h
DU-145 [13] = assay: Antiproliferative activity against human DU145 cells incubated for 72 hrs by CellTiter-Glo luminescence assay; assay type: functional; conditions: DU-145, 72 h
U-87 MG [14] = assay: Antiproliferative activity against human U87MG assessed as combination index at 20 uM incubated for 72 hrs in presence of GI50 dose of GDC-0941 by CellTiter-Glo luminescence assay; assay type: functional, U-87MG ATCC
[15] = Clearance in iv dosed Balb/c mouse administered as single dose measured after 0.08 to 4 hrs by HPLC/MS analysis; assay type: ADME, organism-based; conditions: in vivo
MCF7 = assay: Antiproliferative activity against human MCF7 cells incubated for 72 hrs by CellTiter-Glo luminescence assay; assay type: functional; conditions: MCF7, 72 h
[16] = Antiproliferative activity against human MDA-MB-175 cells incubated for 72 hrs by CellTiter-Glo luminescence assay; assay type: functional
JeKo-1 [17] = assay: Antiproliferative activity against human JeKo1 assessed as combination index at 10 uM incubated for 72 hrs in presence of GI50 dose of Palbociclib by CellTiter-Glo luminescence assay; assay type: functional
JeKo-1 [18] = assay: Antiproliferative activity against human JeKo1 assessed as combination index at 10 uM incubated for 72 hrs in presence of GI50 dose of Lapatinib by CellTiter-Glo luminescence assay; assay type: functional
SK-OV-3 = assay: Antiproliferative activity against human SKOV3 cells incubated for 72 hrs by CellTiter-Glo luminescence assay; assay type: functional; conditions: SK-OV-3, 72 h
CAKI-1 = assay: Antiproliferative activity against human CAKI-1 cells incubated for 72 hrs by CellTiter-Glo luminescence assay; assay type: functional; conditions: CAKI-1, 72 h
BT-549 = assay: Antiproliferative activity against human BT549 cells incubated for 72 hrs by CellTiter-Glo luminescence assay; assay type: functional; conditions: BT-549, 72 h
JeKo-1 [19] = assay: Antiproliferative activity against human JeKo1 cells incubated for 72 hrs by CellTiter-Glo luminescence assay; assay type: functional; conditions: JeKo-1, 72 h
SK-ES1 = assay: Antiproliferative activity against human SK-ES-1 cells incubated for 72 hrs by CellTiter-Glo luminescence assay; assay type: functional; conditions: SK-ES1, 72 h
[20] = biological target: Serine/threonine-protein kinase pim-1 (Homo sapiens, UniProt P11309); assay: Inhibition of PIM1 in human NCI-H1299 cells assessed as reduction in BAD phosphorylation at Ser-112 residue incubated for 4 hrs by ELISA; assay type: cell-based; conditions: read-out: EC50
[21] = Clearance in iv dosed Balb/c mouse administered as single dose measured after 0.08 to 4 hrs by HPLC/MS analysis relative to hepatic blood flow; assay type: ADME, organism-based; conditions: in vivo
U-87 MG [22] = assay: Antiproliferative activity against human U87MG assessed as combination index at 20 uM incubated for 72 hrs in presence of GI50 dose of Lapatinib by CellTiter-Glo luminescence assay; assay type: functional, U-87MG ATCC
NAMALVA = assay: Antiproliferative activity against human NAMALWA cells incubated for 72 hrs by CellTiter-Glo luminescence assay; assay type: functional
A498 = assay: Antiproliferative activity against human A498 cells incubated for 72 hrs by CellTiter-Glo luminescence assay; assay type: functional; conditions: A498, 72 h
MV4-11 [23] = assay: Antiproliferative activity against human MV4-11 assessed as combination index at 10 uM incubated for 72 hrs in presence of GI50 dose of Lapatinib by CellTiter-Glo luminescence assay; assay type: functional
MIA PaCa-2 [24] = assay: Antiproliferative activity against human MIAPaCa2 assessed as combination index at 20 uM incubated for 72 hrs in presence of GI50 dose of GDC-0941 by CellTiter-Glo luminescence assay; assay type: functional
DU-145 [25] = assay: Antiproliferative activity against human DU145 assessed as combination index at 20 uM incubated for 72 hrs in presence of GI50 dose of Lapatinib by CellTiter-Glo luminescence assay; assay type: functional
HL-60 = assay: Antiproliferative activity against human HL60 cells incubated for 72 hrs by CellTiter-Glo luminescence assay; assay type: functional; conditions: HL-60, 72 h
PANC-1 = assay: Antiproliferative activity against human PANC1 cells incubated for 72 hrs by CellTiter-Glo luminescence assay; assay type: functional; conditions: PANC-1, 72 h
SK-MEL19 [26] = assay: Antiproliferative activity against human SK-MEL-19 cells incubated for 72 hrs by CellTiter-Glo luminescence assay; assay type: functional; conditions: SK-MEL19, 72 h

GI50 (A549): 16.2 µM
GI50 (T47D [4]): 10.8 µM
GI50 (SW480): 8.17 µM
GI50 (MDA-MB-231 [8]): 21.2 µM
GI50 (SK-BR-3): 21 µM
GI50 (U-87 MG [10]): 21.7 µM
GI50 (MIA PaCa-2 [12]): 17.4 µM
GI50 (DU-145 [13]): 22.4 µM
clearance [15]: 21 mL/min/kg
GI50 (MCF7): 19.6 µM
GI50 (SK-OV-3): 23.5 µM
GI50 (BT-549): 20.4 µM
GI50 (SK-ES1): 7.38 µM
EC50 [20]: 0.262 µM
CLH [21]: < 30%
GI50 (HL-60): 13.6 µM
GI50 (PANC-1): 25.4 µM
GI50 (SK-MEL19 [26]): 1.48 µM
Compound: COCCN1CCOc2c1cnn1c(-c3ccc4cccc(NCC5CCNCC5)c4n3)nnc21
CI (SK-MEL19 [1]): 0.535
CI (T47D [2]): 0.0001
CI (SK-MEL19 [3]): 0.508
GI50 [5]: 14.9 µM
IC50 [6]: > 20 µM
CI (MV4-11 [7]): 0.334
CI (PC-3): 0.313
CI (MV4-11 [9]): 0.526
CI (MDA-MB-231 [11]): 0.116
CI (U-87 MG [14]): 0.008
GI50 [16]: 10.2 µM
CI (JeKo-1 [17]): 0.108
CI (JeKo-1 [18]): 0.295
GI50 (CAKI-1): 22.1 µM
GI50 (JeKo-1 [19]): 7.3 µM
CI (U-87 MG [22]): 0.43
GI50 (NAMALVA): 9.68 µM
GI50 (A498): 8.98 µM
CI (MV4-11 [23]): 0.43
CI (MIA PaCa-2 [24]): 0.075
CI (DU-145 [25]): 0.0001
